pIC50: −log10 of the molar value. Several values for one entry are separate records, joined by “and”; a condition that tells them apart may be missing. Equal entries are not always repeated.
Tested on: 967376-340-R-J2-PDC multicell spheroid viability
Experiment: Anticancer human tumor 967376-340-R-J2-PDC patient-derived colon adenocarcinoma cell line growth inhibition [PI3K]
Settings: for viability, T/C: stronger effect = lower value; active means viability on the fitted dose curve at most 10% of control; inactive means the rest
Summary of the method: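 Agents were dosed from a top concentration near clinical Cmax (otherwise 10 microM) in half-log decrements, alone or combined with PI3K inhibitors. The spheroids contain tumor cells plus endothelial (HUVEC) and MSC stroma; viability is measured.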

[1] = curve of first compound, second compound 0.00316 µM
[2] = curve of first compound, second compound 0.01 µM
[3] = curve of first compound, second compound 0.0316 µM
[4] = curve of first compound, second compound 0.1 µM
[5] = curve of first compound, second compound 0.316 µM
[6] = curve of first compound, second compound 1 µM
[7] = second compound 0.0316 µM, first compound 0.0316 µM
[8] = second compound 0.0316 µM, first compound 0.1 µM
[9] = second compound 0.0316 µM, first compound 0.316 µM
[10] = second compound 0.0316 µM, first compound 1 µM
[11] = second compound 0.1 µM, first compound 0.0316 µM
[12] = second compound 0.1 µM, first compound 0.1 µM
[13] = second compound 0.1 µM, first compound 0.316 µM
[14] = second compound 0.1 µM, first compound 1 µM
[15] = second compound 0.316 µM, first compound 0.0316 µM
[16] = second compound 0.316 µM, first compound 0.1 µM
[17] = second compound 0.316 µM, first compound 0.316 µM
[18] = second compound 0.316 µM, first compound 1 µM
[19] = second compound 1 µM, first compound 0.0316 µM
[20] = second compound 1 µM, first compound 0.1 µM
[21] = second compound 1 µM, first compound 0.316 µM
[22] = second compound 1 µM, first compound 1 µM
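Further: spheroids exposed to agents for 7 days before read-out.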
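Wherever viability, T/C is given: luminescence used as surrogate of cell viability.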

Cn1cnc2c(F)c(Nc3ccc(Br)cc3Cl)c(C(=O)NOCCO)cc21 + CC(Nc1ccc2c(c1)OCCn1cc(N3C(=O)OCC3C(F)F)nc1-2)C(N)=O
active: viability, T/C (second compound 0.1 µM, first compound 3 µM) 8.2% | viability, T/C (second compound 0.316 µM, first compound 3 µM) 6.33% | viability, T/C (second compound 1 µM, first compound 3 µM) 4.86%
6.52: pIC50 [4]
> 8.02: pIC50 [6]
6.06: pIC50 [1]
6.34: pIC50 [3]
6.25: pIC50 [2]
inactive: viability, T/C (second compound 0.00316 µM, first compound 0.00949 µM) 91.2% | viability, T/C (second compound 0.00316 µM, first compound 0.03 µM) 92.1% | viability, T/C (second compound 0.00316 µM, first compound 0.0949 µM) 92.5% | viability, T/C (second compound 0.00316 µM, first compound 0.3 µM) 67.9% | viability, T/C (second compound 0.00316 µM, first compound 0.949 µM) 50.5% | viability, T/C (second compound 0.00316 µM, first compound 3 µM) 22.7% | viability, T/C (second compound 0.01 µM, first compound 0.00949 µM) 96% | viability, T/C (second compound 0.01 µM, first compound 0.03 µM) 94% | viability, T/C (second compound 0.01 µM, first compound 0.0949 µM) 82.2% | viability, T/C (second compound 0.01 µM, first compound 0.3 µM) 72.2% | viability, T/C (second compound 0.01 µM, first compound 0.949 µM) 30.3% | viability, T/C (second compound 0.01 µM, first compound 3 µM) 31.6% | viability, T/C (second compound 0.0316 µM, first compound 0.00949 µM) 81.8% | viability, T/C (second compound 0.0316 µM, first compound 0.03 µM) 83.2% | viability, T/C (second compound 0.0316 µM, first compound 0.0949 µM) 58.3% | viability, T/C (second compound 0.0316 µM, first compound 0.3 µM) 55.5% | viability, T/C (second compound 0.0316 µM, first compound 0.949 µM) 46.6% | viability, T/C (second compound 0.0316 µM, first compound 3 µM) 20.1% | viability, T/C (second compound 0.1 µM, first compound 0.00949 µM) 66.2% | viability, T/C (second compound 0.1 µM, first compound 0.03 µM) 70.8% | viability, T/C (second compound 0.1 µM, first compound 0.0949 µM) 67.8% | viability, T/C (second compound 0.1 µM, first compound 0.3 µM) 49.5% | viability, T/C (second compound 0.1 µM, first compound 0.949 µM) 18.7% | viability, T/C (second compound 0.316 µM, first compound 0.00949 µM) 48.2% | viability, T/C (second compound 0.316 µM, first compound 0.03 µM) 52.4% | viability, T/C (second compound 0.316 µM, first compound 0.0949 µM) 44.1% | viability, T/C (second compound 0.316 µM, first compound 0.3 µM) 27.8% | viability, T/C (second compound 0.316 µM, first compound 0.949 µM) 23.7% | viability, T/C (second compound 1 µM, first compound 0.00949 µM) 45.7% | viability, T/C (second compound 1 µM, first compound 0.03 µM) 51% | viability, T/C (second compound 1 µM, first compound 0.0949 µM) 31.3% | viability, T/C (second compound 1 µM, first compound 0.3 µM) 24.6% | viability, T/C (second compound 1 µM, first compound 0.949 µM) 9.79%
7.80: pIC50 [5]

C#Cc1c(F)ccc2cc(O)cc(-c3ncc4c(N5CC6CCC(C5)N6)nc(OCC56CCCN5CC(F)C6)nc4c3F)c12 (stereo not given)
inactive: viability, T/C (compound 0.0316 µM) 106% [middle of 4 runs] | viability, T/C (compound 0.1 µM) 109% and 101% (2×) and 92.1% | viability, T/C (compound 3.16 µM) 91.7% [middle of 4 runs]
< 5.00: pIC50 (curve of compound)

CC1(C)CCC(Nc2ncc(C(F)(F)F)c(-c3c[nH]c4c(P(C)(C)=O)c(C#N)ccc34)n2)CN1 (stereo not given) + CC(Nc1ncnc2nc[nH]c12)c1cc2cccc(Cl)c2c(=O)n1-c1ccccc1
5.32: pIC50 (curve of first compound, second compound 10 µM)
inactive: viability, T/C [7] 103% | viability, T/C [8] 90.2% | viability, T/C [9] 80.3% | viability, T/C [10] 69.2% | viability, T/C (second compound 0.0316 µM, first compound 3.16 µM) 68.3% | viability, T/C (second compound 0.0316 µM, first compound 10 µM) 55.4% | viability, T/C [11] 108% | viability, T/C [12] 92.8% | viability, T/C [13] 79.6% | viability, T/C [14] 75.2% | viability, T/C (second compound 0.1 µM, first compound 3.16 µM) 76.6% | viability, T/C (second compound 0.1 µM, first compound 10 µM) 55.7% | viability, T/C [15] 83.5% | viability, T/C [16] 91.6% | viability, T/C [17] 93% | viability, T/C [18] 60.9% | viability, T/C (second compound 0.316 µM, first compound 3.16 µM) 71.4% | viability, T/C (second compound 0.316 µM, first compound 10 µM) 64.3% | viability, T/C [19] 90.6% | viability, T/C [20] 93.5% | viability, T/C [21] 64.1% | viability, T/C [22] 78.1% | viability, T/C (second compound 1 µM, first compound 3.16 µM) 68.2% | viability, T/C (second compound 1 µM, first compound 10 µM) 63.9% | viability, T/C (second compound 3.16 µM, first compound 0.0316 µM) 84.6% | viability, T/C (second compound 3.16 µM, first compound 0.1 µM) 73.6% | viability, T/C (second compound 3.16 µM, first compound 0.316 µM) 85% | viability, T/C (second compound 3.16 µM, first compound 1 µM) 73.4% | viability, T/C (second compound 3.16 µM, first compound 3.16 µM) 73% | viability, T/C (second compound 3.16 µM, first compound 10 µM) 62.3% | viability, T/C (second compound 10 µM, first compound 0.0316 µM) 72.3% | viability, T/C (second compound 10 µM, first compound 0.1 µM) 73.8% | viability, T/C (second compound 10 µM, first compound 0.316 µM) 70.2% | viability, T/C (second compound 10 µM, first compound 1 µM) 63.5% | viability, T/C (second compound 10 µM, first compound 3.16 µM) 56.8% | viability, T/C (second compound 10 µM, first compound 10 µM) 39.4%
< 5.00: pIC50 [3] | pIC50 [4] | pIC50 [5] | pIC50 [6] | pIC50 (curve of first compound, second compound 3.16 µM)

CCN1CCN(Cc2ccc(Nc3ncc(F)c(-c4cc(F)c5nc(C)n(C(C)C)c5c4)n3)nc2)CC1 + CC(Nc1ccc2c(c1)OCCn1cc(N3C(=O)OCC3C(F)F)nc1-2)C(N)=O
6.96: pIC50 [5]
< 6.00: pIC50 [1] | pIC50 [2] | pIC50 [3]
6.10: pIC50 [4]
7.26: pIC50 [6]
inactive: viability, T/C (second compound 0.00316 µM, first compound 0.00316 µM) 94.2% | viability, T/C (second compound 0.00316 µM, first compound 0.01 µM) 73.2% | viability, T/C (second compound 0.00316 µM, first compound 0.0316 µM) 86.9% | viability, T/C (second compound 0.00316 µM, first compound 0.1 µM) 75.2% | viability, T/C (second compound 0.00316 µM, first compound 0.316 µM) 80.9% | viability, T/C (second compound 0.00316 µM, first compound 1 µM) 70.5% | viability, T/C (second compound 0.01 µM, first compound 0.00316 µM) 94.9% | viability, T/C (second compound 0.01 µM, first compound 0.01 µM) 74.8% | viability, T/C (second compound 0.01 µM, first compound 0.0316 µM) 71.4% | viability, T/C (second compound 0.01 µM, first compound 0.1 µM) 93.2% | viability, T/C (second compound 0.01 µM, first compound 0.316 µM) 69.5% | viability, T/C (second compound 0.01 µM, first compound 1 µM) 67.7% | viability, T/C (second compound 0.0316 µM, first compound 0.00316 µM) 77.6% | viability, T/C (second compound 0.0316 µM, first compound 0.01 µM) 81.3% | viability, T/C [7] 79.2% | viability, T/C [8] 86.8% | viability, T/C [9] 63.4% | viability, T/C [10] 52.3% | viability, T/C (second compound 0.1 µM, first compound 0.00316 µM) 62.7% | viability, T/C (second compound 0.1 µM, first compound 0.01 µM) 64.6% | viability, T/C [11] 69.8% | viability, T/C [12] 65.1% | viability, T/C [13] 47.3% | viability, T/C [14] 51.3% | viability, T/C (second compound 0.316 µM, first compound 0.00316 µM) 62.7% | viability, T/C (second compound 0.316 µM, first compound 0.01 µM) 54.9% | viability, T/C [15] 57.4% | viability, T/C [16] 47.5% | viability, T/C [17] 48.6% | viability, T/C [18] 42.5% | viability, T/C (second compound 1 µM, first compound 0.00316 µM) 59.4% | viability, T/C (second compound 1 µM, first compound 0.01 µM) 52.2% | viability, T/C [19] 54.2% | viability, T/C [20] 49.3% | viability, T/C [21] 35.5% | viability, T/C [22] 26%

Source: PubChem BioAssay AID1963962 (Molecular Pharmacology Branch, DTP, NCI, 2024)
